# How the values were obtained:
# [1] = target: T1, human Hsp90α N-terminal domain (Homo sapiens, UniProt P07900); assay: Isothermal titration calorimetry (ITC) binding to human Hsp90; conditions: 25 mM Tris, 100 mM NaCl, 1 mM MgCl2, 1 mM TCEP, 5% DMSO, pH 7.4
# T1 construct: Cloning, expression, and purification of the Human Hsp90a N-terminal domain were performed according to published methods; made in house
# Procedure: The ability of the compounds of the invention to bind to human Hsp90 proteins was determined using isothermal titration calorimetry.
# Isothermal titration calorimetry (ITC) experiments were performed with a VP-ITC titration calorimeter (Microcal Inc., Northampton, Mass., USA). […] All solutions were filtered and degassed prior to a titration being carried out. The enthalpy change resulting from each injection of ligand was obtained through integration of the calorimetric signal. Data were analysed using Origin 7.0 (Microcal Software Inc., Northampton, Mass.). Heats of dilution were estimated using the final injections of each individual titration and subtracted before data fitting. Different ITC experimental formats were employed in order to obtain compound dissociation constants (Kd's) over a wide range of affinities. […] In this type of experiment the stoichiometry parameter (N) was locked at 1 for data fitting.
# [2] = Solid-state stability of crystalline L-lactate salt forms (storage in air / 40° C. and 75% RH, XRPD); assay type: physicochemical; conditions: solid L-lactate 1:1 salt of Compound (VIII); in air, or at 40° C. and 75% RH
# Excerpt: Samples for X-ray powder diffraction (XRPD) data collection were gently ground by marble mortar and loaded into a crystallographic capillary (from Hampton Research, Quartz or Glass Type 10, 0.4 or 0.7 mm diameter). Diffraction patterns were collected at room temperature using CuKα radiation (λ=1.5418 Å) from a Rigaku rotating anode RU3HR, Osmic blue confocal optics, ¼ c goniometer and a Rigaku HTC image plate detector. 2D images were collected while spinning φ axis with a detector to crystal distance of 250 mm. Data collection was controlled by CrystalClear software and 2D images were converted to 1D plot (2θ vs. Intensity) by Datasqueeze (intensity averaged over the azimuthal angle 0≦χ≦360° for 2θ range 3-30° in 0.02° steps). In house program AstexXRPD was used for manipulation and visualisation of 1D XRPD patterns.
Structure (SMILES),Kd [1],stability of crystalline form [2]
"CC(C)c1cc(C(=O)N2Cc3ccc(CN4CCN(C)CC4)cc3C2)c(O)cc1O [Example 55, (2,4-dihydroxy-5-isopropyl-phenyl)-[5-(4-methyl-piperazin-1-ylmethyl)-1,3-dihydro-isoindol-2-yl]-methanone]",< 100 nM,–
"CC(C)c1cc(C(=O)N2Cc3ccc(CN4CCN(C)CC4)cc3C2)c(O)cc1O.C[C@H](O)C(=O)O [Form FL1, (2,4-dihydroxy-5-isopropyl-phenyl)-[5-(4-methyl-piperazin-1-ylmethyl)-1,3-dihydro-isoindol-2-yl]-methanone L-lactate salt]",–,stable in air and at 40 °C and 75% RH for at least one month
"CC(C)c1cc(C(=O)N2Cc3ccc(CN4CCN(C)CC4)cc3C2)c(O)cc1O.C[C@H](O)C(=O)O [Form FL3, (2,4-dihydroxy-5-isopropyl-phenyl)-[5-(4-methyl-piperazin-1-ylmethyl)-1,3-dihydro-isoindol-2-yl]-methanone L-lactate salt]",–,transforms in air into form FL1
"CC(C)c1cc(C(=O)N2Cc3ccc(CN4CCN(C)CC4)cc3C2)c(O)cc1O.C[C@H](O)C(=O)O [form FL2, (2,4-dihydroxy-5-isopropyl-phenyl)-[5-(4-methyl-piperazin-1-ylmethyl)-1,3-dihydro-isoindol-2-yl]-methanone L-lactate salt]",–,stable in air

# — patent US9730912B2, “Pharmaceutical compounds” (ASTEX THERAPEUTICS LIMITED, priority 2006, dated 2017)
